Assay results as given in paper PMC3577712 (PLoS ONE, 2013).
pEC50: −log10 of the molar value.

Columns and labels:
[1] = system: Influenza A/TW/70058/09 (H1N1); test: microbe, parasite or virus in culture; type: cell-based; settings: H1N1, read-out: EC50, viral plaque reduction assay
[2] = system: Influenza A/TW/70066/09 (H1N1); test: microbe, parasite or virus in culture; type: cell-based; settings: H1N1, read-out: EC50, viral plaque reduction assay

Nc1c(S(=O)(=O)O)cc(Nc2cccc(S(=O)(=O)CCOS(=O)(=O)O)c2)c2c1C(=O)c1ccccc1C2=O [RB19, Remazol Brilliant Blue R]
pEC50 [1]: 5.01 | pEC50 [2]: 4.92
